In patent US6436631B1, “Comparative phenotype analysis for assessment of biologically active compounds such as antimicrobials” (priority 2000, dated 2002):

Tests used:
[1] = system: Saccharomyces cerevisiae (BY4741); experiment: EA MicroPlate nutrient stimulation test without methionine (iodo-nitro-tetrazolium violet reduction); format: cell-based; settings: 30° C., 2 days, visual
Experimental: In this Example, the response of a yeast to various compounds was tested. The yeast used in these experiments was Saccharomyces cerevisiae (BY4741, obtained from Dr. Mark Johnston, Washington University, St. Louis, Mo.). The genotype of this strain was indicated as being Mat a (i.e., mating type “a”), ura-, his-, leu-, and met-. In these experiments, the ability of this strain to grow in a culture medium without methionine was investigated. Methionine interferes with the ability to test this organism for its utilization of other potential sulfur sources (i.e., if methionine is added to a culture medium the organism preferentially uses it as a sulfur source). The yeast was grown for 48 hours at 30° C. on R2A agar medium (Acumedia). Cells were removed from the agar surface with a sterile cotton swab and suspended at a cell density of 65% transmittance (as read using a BiologTM turbidimeter) in an inoculating fluid containing 50 mM glucose, 0.15 mM uracil, 0.15 mM L-histidine, 0.15 mM L-leucine, 0.15 mM MgCl2, 1.0 mM CaCl2, 2.0 mM NaCl, 1.0 mM KCl, 3.0 mM NH4Cl, 1.0 mM NaH2PO4, 0.1 mM Na2SO4, 0.01% iodo-nitro-tetrazolium violet, 0.01% phytagel (gellan gum), 0.03% pluronic F-68; the pH was adjusted to 6.0. The cell suspension (100 μl/well) was then used to inoculate a BiologTM EA MicroPlateTM, which tests the ability of a cell to be stimulated by a set of 95 different nutrients. The nutrients included within the microarray were: […] One well (A-1) contains no nutrients and is used as a reference (i.e., control) well. After inoculation, the microarray was incubated at 30° C. for 2 days and visually observed.

[2] = system: vancomycin-intermediate S. aureus isolates (VISA); settings: VISA isolates identified since 1996 in Europe, Asia and the U.S.; cited from earlier work
E. coli (MG1655) = experiment: BAC combination (synergy/antagonism) testing in ES1, ES2 and ES3 MicroPlate sensitivity panels, tetrazolium violet; format: cell-based; settings: in the presence of 10 μg/ml vancomycin; vancomycin wells at 10, 20, 40 and 80 μg/ml
Experimental: In this Example, the susceptibility of E. coli (MG1655) was tested in the presence of vancomycin (10 μg/ml) or sulfamethoxazole (235 μg/ml) in microarrays containing various additional compounds. The microarrays were present in three Biolog™ sensitivity test panels, referred to as ES1, ES2 and ES3 MicroPlates™. The organisms were added to a sterile aqueous suspension containing 0.40% NaCl, 0.03% pluronic F68, 0.01% phytagel, and 0.01% tetrazolium violet, to a cell density of 85% transmittance (as measured using a BiologTm turbidimeter). The BAC to be tested was added to the suspension just prior to inoculating the organisms (100 μl/well) into the wells of the microarrays. The wells of these ES MicroPlates™ contained a basal broth medium consisting of tryptone (2 g/L), yeast extract (1 g/L), and NaCl (1 g/L). […]

N[C@@H](CCC(=O)N[C@@H](CS)C(=O)NCC(=O)O)C(=O)O [glutathione]
stimulation of growth/respiration (pink color) in medium without methionine ([1]; glutathione well (reduced form; 100 μM)): increased pink color

CN[C@H](CC(C)C)C(=O)N[C@H]1C(=O)N[C@@H](CC(N)=O)C(=O)N[C@H]2C(=O)N[C@H]3C(=O)N[C@H](C(=O)N[C@H](C(=O)O)c4cc(O)cc(O)c4-c4cc3ccc4O)[C@H](O)c3ccc(c(Cl)c3)Oc3cc2cc(c3O[C@@H]2O[C@H](CO)[C@@H](O)[C@H](O)[C@H]2O[C@H]2C[C@](C)(N)[C@H](O)[C@H](C)O2)Oc2ccc(cc2Cl)[C@H]1O [vancomycin]
vancomycin minimum inhibitory concentration [MIC] [2]: 8 to 16 µg/mL | change of sensitivity of E. coli strain to panel compound (E. coli (MG1655)): transient increased sensitivity

CSCC[C@H](N)C(=O)O [L-methionine]
stimulation of growth/respiration (pink color) in medium without methionine ([1]; L-methionine well (25 μM)): increased pink color
